In the NIST ThermoML archive (doi:10.1016/j.jct.2010.01.004):
± gives the expanded uncertainty stated by the source.

How the values were obtained:
[1] = activity coefficient (dimensionless); of the first substance listed, at infinite dilution; xn = mol fraction of the nth substance listed; details: Liquid, Chromatography, x1 = 0
[2] = 308.15 K; 101.33 kPa; Liquid; Vibrating tube method

Row | mass density [2] [kg/m3] | SMILES | activity coefficient ([1]; 298.15 K) | activity coefficient ([1]; 308.15 K) | activity coefficient ([1]; 318.15 K) | activity coefficient ([1]; 328.15 K) | activity coefficient ([1]; 338.15 K) | activity coefficient ([1]; 348.15 K) | activity coefficient ([1]; 358.15 K) | activity coefficient ([1]; 368.15 K)
1 | – | Cc1ccccc1C [1,2-dimethylbenzene] + CC(C)C[P+](C)(CC(C)C)CC(C)C.Cc1ccc(S(=O)(=O)[O-])cc1 | 2.31 ± 0.16 | 2.21 ± 0.15 | 2.18 ± 0.15 | 2.1 ± 0.14 | 2.06 ± 0.14 | 2.04 ± 0.14 | 2.03 ± 0.14 | 2.01 ± 0.14
2 | – | Cc1cccc(C)c1 [1,3-dimethylbenzene] + CC(C)C[P+](C)(CC(C)C)CC(C)C.Cc1ccc(S(=O)(=O)[O-])cc1 | 2.68 ± 0.18 | 2.48 ± 0.17 | 2.44 ± 0.17 | 2.33 ± 0.16 | 2.36 ± 0.16 | 2.28 ± 0.16 | 2.27 ± 0.15 | 2.23 ± 0.15
3 | – | Cc1ccc(C)cc1 [1,4-dimethylbenzene] + CC(C)C[P+](C)(CC(C)C)CC(C)C.Cc1ccc(S(=O)(=O)[O-])cc1 | 2.54 ± 0.17 | 2.44 ± 0.17 | 2.4 ± 0.16 | 2.23 ± 0.15 | 2.26 ± 0.15 | 2.23 ± 0.15 | 2.24 ± 0.15 | 2.21 ± 0.15
4 | – | C=CCCCCC [1-heptene] + CC(C)C[P+](C)(CC(C)C)CC(C)C.Cc1ccc(S(=O)(=O)[O-])cc1 | 19.2 ± 1.3 | 14.6 ± 1 | 11.9 ± 0.8 | 9.62 ± 0.66 | – | – | – | –
5 | – | C#CCCCCC [1-heptyne] + CC(C)C[P+](C)(CC(C)C)CC(C)C.Cc1ccc(S(=O)(=O)[O-])cc1 | 2.57 ± 0.17 | 2.62 ± 0.18 | 2.54 ± 0.17 | 2.54 ± 0.17 | – | – | – | –
6 | – | C#CCCCC [1-hexyne] + CC(C)C[P+](C)(CC(C)C)CC(C)C.Cc1ccc(S(=O)(=O)[O-])cc1 | 2.69 ± 0.18 | 2.48 ± 0.17 | 2.32 ± 0.16 | 2.17 ± 0.15 | – | – | – | –
7 | – | C#CCCCCCC [1-octyne] + CC(C)C[P+](C)(CC(C)C)CC(C)C.Cc1ccc(S(=O)(=O)[O-])cc1 | 3.19 ± 0.22 | 3.08 ± 0.21 | 3.06 ± 0.21 | 3.04 ± 0.21 | – | – | – | –
8 | – | C=CCCC [1-pentene] + CC(C)C[P+](C)(CC(C)C)CC(C)C.Cc1ccc(S(=O)(=O)[O-])cc1 | 30.5 ± 2.1 | 20.7 ± 1.4 | 14.5 ± 1 | 9.91 ± 0.68 | – | – | – | –
9 | – | C#CCCC [1-pentyne] + CC(C)C[P+](C)(CC(C)C)CC(C)C.Cc1ccc(S(=O)(=O)[O-])cc1 | 3.01 ± 0.2 | 2.55 ± 0.17 | 2.24 ± 0.15 | 1.98 ± 0.13 | – | – | – | –
10 | – | COC(C)(C)C [2-methoxy-2-methylpropane] + CC(C)C[P+](C)(CC(C)C)CC(C)C.Cc1ccc(S(=O)(=O)[O-])cc1 | 17.1 ± 1.2 | 11 ± 0.8 | 8.26 ± 0.56 | 5.68 ± 0.39 | 5 ± 0.34 | 4.57 ± 0.31 | 4.16 ± 0.28 | –
11 | – | c1ccccc1 [benzene] + CC(C)C[P+](C)(CC(C)C)CC(C)C.Cc1ccc(S(=O)(=O)[O-])cc1 | 1.53 ± 0.1 | 1.42 ± 0.09 | 1.35 ± 0.09 | 1.28 ± 0.08 | 1.25 ± 0.08 | 1.21 ± 0.08 | 1.2 ± 0.08 | 1.18 ± 0.08
12 | – | CCCCO [butan-1-ol] + CC(C)C[P+](C)(CC(C)C)CC(C)C.Cc1ccc(S(=O)(=O)[O-])cc1 | – | – | 0.322 ± 0.031 | 0.318 ± 0.031 | 0.319 ± 0.031 | 0.328 ± 0.032 | 0.33 ± 0.032 | 0.323 ± 0.032
13 | – | C1CCCCCC1 [cycloheptane] + CC(C)C[P+](C)(CC(C)C)CC(C)C.Cc1ccc(S(=O)(=O)[O-])cc1 | 12.3 ± 0.8 | 9.79 ± 0.67 | 7.64 ± 0.52 | 6.55 ± 0.45 | – | – | – | –
14 | – | C1CCCCC1 [cyclohexane] + CC(C)C[P+](C)(CC(C)C)CC(C)C.Cc1ccc(S(=O)(=O)[O-])cc1 | 22.5 ± 1.5 | 14.5 ± 1 | 10.5 ± 0.7 | 7.67 ± 0.52 | – | – | – | –
15 | – | C1CCCCCCC1 [cyclooctane] + CC(C)C[P+](C)(CC(C)C)CC(C)C.Cc1ccc(S(=O)(=O)[O-])cc1 | 10.5 ± 0.7 | 8.54 ± 0.58 | 7.48 ± 0.51 | 6.67 ± 0.45 | – | – | – | –
16 | – | C1CCCC1 [cyclopentane] + CC(C)C[P+](C)(CC(C)C)CC(C)C.Cc1ccc(S(=O)(=O)[O-])cc1 | 20.6 ± 1.4 | 13.5 ± 0.9 | 9.69 ± 0.66 | 6.79 ± 0.46 | – | – | – | –
17 | – | CCCCCCCCCC [decane] + CC(C)C[P+](C)(CC(C)C)CC(C)C.Cc1ccc(S(=O)(=O)[O-])cc1 | 33.3 ± 2.3 | 29.2 ± 2 | 26 ± 1.8 | 23.6 ± 1.6 | – | – | – | –

Row | mass density [2] [kg/m3] | SMILES | activity coefficient ([1]; 298.15 K) | activity coefficient ([1]; 308.15 K) | activity coefficient ([1]; 318.15 K) | activity coefficient ([1]; 328.15 K) | activity coefficient ([1]; 338.15 K) | activity coefficient ([1]; 348.15 K) | activity coefficient ([1]; 358.15 K) | activity coefficient ([1]; 368.15 K)
18 | – | CCO [ethanol] + CC(C)C[P+](C)(CC(C)C)CC(C)C.Cc1ccc(S(=O)(=O)[O-])cc1 | – | 0.263 ± 0.03 | 0.259 ± 0.03 | 0.261 ± 0.03 | 0.262 ± 0.03 | 0.266 ± 0.03 | 0.268 ± 0.03 | 0.266 ± 0.03
19 | – | CCc1ccccc1 [ethylbenzene] + CC(C)C[P+](C)(CC(C)C)CC(C)C.Cc1ccc(S(=O)(=O)[O-])cc1 | 2.51 ± 0.17 | 2.37 ± 0.16 | 2.33 ± 0.16 | 2.25 ± 0.15 | 2.2 ± 0.15 | 2.17 ± 0.15 | 2.16 ± 0.15 | 2.09 ± 0.14
20 | – | CCCCCCC [heptane] + CC(C)C[P+](C)(CC(C)C)CC(C)C.Cc1ccc(S(=O)(=O)[O-])cc1 | 35.2 ± 2.4 | 26.4 ± 1.8 | 20.8 ± 1.4 | 16.1 ± 1.1 | – | – | – | –
21 | – | C=CCCCC [hex-1-ene] + CC(C)C[P+](C)(CC(C)C)CC(C)C.Cc1ccc(S(=O)(=O)[O-])cc1 | 23.5 ± 1.6 | 16.5 ± 1.1 | 12.4 ± 0.8 | 9.35 ± 0.64 | – | – | – | –
22 | – | CCCCCC [hexane] + CC(C)C[P+](C)(CC(C)C)CC(C)C.Cc1ccc(S(=O)(=O)[O-])cc1 | 48.8 ± 3.3 | 32.2 ± 2.2 | 23.3 ± 1.6 | 16.4 ± 1.1 | – | – | – | –
23 | – | CO [methanol] + CC(C)C[P+](C)(CC(C)C)CC(C)C.Cc1ccc(S(=O)(=O)[O-])cc1 | 0.168 ± 0.029 | 0.164 ± 0.029 | 0.166 ± 0.029 | 0.167 ± 0.029 | 0.171 ± 0.029 | 0.175 ± 0.029 | 0.178 ± 0.029 | 0.179 ± 0.029
24 | – | CCCCCCCCC [nonane] + CC(C)C[P+](C)(CC(C)C)CC(C)C.Cc1ccc(S(=O)(=O)[O-])cc1 | 26.8 ± 1.8 | 24.7 ± 1.7 | 21.6 ± 1.5 | 19.8 ± 1.4 | – | – | – | –
25 | – | C=CCCCCCC [oct-1-ene] + CC(C)C[P+](C)(CC(C)C)CC(C)C.Cc1ccc(S(=O)(=O)[O-])cc1 | 16.6 ± 1.1 | 15 ± 1 | 12.2 ± 0.8 | 10.8 ± 0.74 | – | – | – | –
26 | – | CCCCCCCC [octane] + CC(C)C[P+](C)(CC(C)C)CC(C)C.Cc1ccc(S(=O)(=O)[O-])cc1 | 30.7 ± 2.1 | 25.8 ± 1.8 | 20.6 ± 1.4 | 17.2 ± 1.2 | – | – | – | –
27 | – | CCCCCO [pentan-1-ol] + CC(C)C[P+](C)(CC(C)C)CC(C)C.Cc1ccc(S(=O)(=O)[O-])cc1 | – | – | – | – | 0.34 ± 0.032 | 0.346 ± 0.032 | 0.354 ± 0.032 | 0.357 ± 0.033
28 | – | CCCCC [pentane] + CC(C)C[P+](C)(CC(C)C)CC(C)C.Cc1ccc(S(=O)(=O)[O-])cc1 | 61.4 ± 4.2 | 41.5 ± 2.8 | 28.5 ± 2 | 18.5 ± 1.3 | – | – | – | –
29 | – | CCCO [propan-1-ol] + CC(C)C[P+](C)(CC(C)C)CC(C)C.Cc1ccc(S(=O)(=O)[O-])cc1 | – | 0.278 ± 0.03 | 0.282 ± 0.03 | 0.28 ± 0.03 | 0.284 ± 0.03 | 0.287 ± 0.031 | 0.299 ± 0.031 | 0.287 ± 0.031
30 | – | C1CCOC1 [tetrahydrofuran] + CC(C)C[P+](C)(CC(C)C)CC(C)C.Cc1ccc(S(=O)(=O)[O-])cc1 | 1.41 ± 0.09 | 1.31 ± 0.09 | 1.22 ± 0.08 | 1.12 ± 0.07 | 1.09 ± 0.07 | 1.05 ± 0.07 | 1.05 ± 0.07 | –
31 | – | c1ccsc1 [thiophene] + CC(C)C[P+](C)(CC(C)C)CC(C)C.Cc1ccc(S(=O)(=O)[O-])cc1 | 0.901 ± 0.057 | 0.848 ± 0.054 | 0.843 ± 0.054 | 0.818 ± 0.053 | 0.812 ± 0.053 | 0.805 ± 0.052 | 0.804 ± 0.052 | –
32 | – | Cc1ccccc1 [toluene] + CC(C)C[P+](C)(CC(C)C)CC(C)C.Cc1ccc(S(=O)(=O)[O-])cc1 | 1.94 ± 0.13 | 1.81 ± 0.12 | 1.78 ± 0.12 | 1.69 ± 0.11 | 1.66 ± 0.11 | 1.65 ± 0.11 | 1.64 ± 0.11 | 1.61 ± 0.11
33 | 1061 ± 3 | CC(C)C[P+](C)(CC(C)C)CC(C)C.Cc1ccc(S(=O)(=O)[O-])cc1 [triisobutylmethylphosphonium p-toluenesulfonate] | – | – | – | – | – | – | – | –
34 | – | O [water] + CC(C)C[P+](C)(CC(C)C)CC(C)C.Cc1ccc(S(=O)(=O)[O-])cc1 | – | – | 0.585 ± 0.041 | 0.552 ± 0.04 | 0.534 ± 0.039 | 0.524 ± 0.039 | 0.492 ± 0.037 | 0.477 ± 0.037
